US20240398814A1, “KRAS INHIBITOR AND HDAC INHIBITOR COMBINATION FOR THE TREATMENT OF CANCER” (Northwestern University, priority 2023, published 2024)

Experiments:
[1] = system: NF-kB/p65 protein; test: Western blot of p65 nuclear localisation and K310 acetylation in KL LJE1 cells; format: cell-based, mouse
Experimental: Protein lysates in CST buffer (20 mM Tris pH 7.5, 150 mM NaCl, 1% Triton X-100, 50 mM NaF, 1 mM EDTA, 1 mM EGTA, 2.5 mM PyroPhosphate, 2 mM beta-glycerol-phosphate, 1 mM orthovanadate, 0.01 mM Calyculan A) with protease inhibitors were equilibrated for protein levels using a BCA protein assay kit (Pierce), resolved on 8% SDS-PAGE gels, and transferred to membrane. Membranes were blocked in milk, incubated o/n at 4C in diluted primary antibody, washed with TBS-T, incubated 1 hr in secondary antibody diluted in TBS-T plus milk, washed in TBS-T, and developed using SuperSignal ECL. Secondary antibodies: anti-rabbit (Millipore AP132P) and anti-mouse (Millipore AP124P). Nuclear fractions were isolated using a NE-PER nuclear and cytoplasmic extraction kit (Thermofisher) under manufacturers conditions.
p65-expressing DNA constructs RelA-Flag (22) (Addgene 20012) and GFP-RelA (21) (Addgene 23255) were transiently transfected into KL LJE1 cells using Lipofectamine 2000 (Thermo Fisher Scientific) according to the manufacturer's protocol. Cells were treated with drug as indicated 24 hours after transfection.

[2] = system: KL LJE1 cells; test: qRT-PCR of chemokine (HRCG) gene expression in KL LJE1 cells; format: cell-based, mouse
Experimental: All cell lines were incubated at 37° C. and were maintained in an atmosphere containing 5% CO2. Cells were tested for Mycoplasma (Lonza) using manufacturer's conditions and were deemed negative. Cells were grown in Dulbecco's modified Eagles medium (DMEM) plus 10% fetal bovine serum (Gibco) and were continuously maintained under antibiotic selection for stable cell lines. Proliferation assays were performed by plating 2×10^3 cells per well of a 6-well plate, and cells were counted 5 days post-plating. Drug treatments were carried out using the following doses: entinostat 1 uM or 2 uM, RGFP966 10uM, TSA 0.5 uM, BRD3308 5 uM, trametinib 5 nM, 10 nM, and 25 nM, and MRTX1133 10 nM, 25 nM, and 50 nM, as indicated for the indicated treatment lengths. Media was changed and fresh drug added every 2 days.
mRNA was prepared using the Quick-RNA Miniprep kit (Zymo Research), including DNase treatment. cDNA was synthesized from 2 μg of RNA using SuperScript III (Life Technologies), and qPCR was carried out with diluted cDNA, appropriate primers, and SYBR Green PCR master mix (ThermoFisher Scientific) using a C1000 Thermal Cycler (BioRad). Relative mRNA levels were calculated using the delta Ct method, using Tbp as an internal control.

[3] = system: human KRAS, LKB1 mutant lung cancer cells; test: FGFR1 resistance mechanism in human KRAS, LKB1 mutant lung cancer cells; format: cell-based; conditions: 9 days of trametinib treatment, entinostat treatment days 3-9 (6 days total)
[4] = system: human LKB1 mutant lung cancer cells; test: FGFR1 resistance mechanism in human LKB1 mutant lung cancer cells; format: cell-based; conditions: 9 days of trametinib treatment, entinostat treatment days 3-9 (6 days total)

In the case of Nc1ccccc1NC(=O)c1ccc(CNC(=O)OCc2cccnc2)cc1 [entinostat], the “acetylation of wildtype p65 at K310 (versus K310A mutant)” value ([1]; 5 hours, 1 uM entinostat or 5 uM BRD3308) is reported as “induce acetylation of wildtype p65 at K310”, the “K310 acetylation on transfected p65” value ([1]; Flag-p65 or GFP-p65, 6 hr, 2 uM entinostat) is reported as “increased K310 acetylation on p65” and the “quantity of p65 protein in the nuclear fraction” value ([1]; Western blot, 6 hr, 2 uM entinostat, 10uM RGFP966, 0.5 uM TSA) is reported as “increased the quantity of p65 protein in the nuclear fraction”. For the same compound, the “HRCG gene expression response in cells expressing p65 WT or p65 K310A” value ([2]; 3 days, 1 uM entinostat) was “K310 only significantly altered the gene expression response of Cc120, Cxc15, and Cc15”, the “gene expression induction in NT versus p65 KO cells” value ([2]; 3 days, 1 uM entinostat or 5 uM BRD3308) was “p65 facilitates maximal gene expression induction” and the “chemokine (SASP) gene expression” value ([2]; 72 hr, 2 uM entinostat or 10uM RGFP966) was “robust induction of gene expression”. For the same compound, the “impact of Trametinib on the FGFR1 resistance mechanism” value [3] was “reverses the impact of Trametinib on the FGFR1 resistance mechanism” and the “impact of Trametinib on the FGFR1 resistance mechanism” value [4] was “reverses the impact of Trametinib on the FGFR1 resistance mechanism”.
